From publication PMC3900681, “Flock House Virus RNA Polymerase Initiates RNA Synthesis De Novo and Possesses a Terminal Nucleotidyl Transferase Activity” (PLoS ONE, 2014)

Target: T1, FHV protein A (MBP-Pro A) (Flock House virus, UniProt Q66929)
T1 construct: N-terminal MBP fusion (pMAL-c2X, EcoRI-SalI), tag kept; E. coli, amylose resin; ~155 kDa
Assay: RdRP assay, DIG-labelled RNA product on denaturing gel
Type: biochemical
Details: blocked (+)-RNA1_1-191 template, 250 uM DIG RNA Labelling Mix, 1 mM MnCl2, pH 8.0, 30 C, 90 min

T1 sequence (Q66929 whole entry, the tested form may be a part): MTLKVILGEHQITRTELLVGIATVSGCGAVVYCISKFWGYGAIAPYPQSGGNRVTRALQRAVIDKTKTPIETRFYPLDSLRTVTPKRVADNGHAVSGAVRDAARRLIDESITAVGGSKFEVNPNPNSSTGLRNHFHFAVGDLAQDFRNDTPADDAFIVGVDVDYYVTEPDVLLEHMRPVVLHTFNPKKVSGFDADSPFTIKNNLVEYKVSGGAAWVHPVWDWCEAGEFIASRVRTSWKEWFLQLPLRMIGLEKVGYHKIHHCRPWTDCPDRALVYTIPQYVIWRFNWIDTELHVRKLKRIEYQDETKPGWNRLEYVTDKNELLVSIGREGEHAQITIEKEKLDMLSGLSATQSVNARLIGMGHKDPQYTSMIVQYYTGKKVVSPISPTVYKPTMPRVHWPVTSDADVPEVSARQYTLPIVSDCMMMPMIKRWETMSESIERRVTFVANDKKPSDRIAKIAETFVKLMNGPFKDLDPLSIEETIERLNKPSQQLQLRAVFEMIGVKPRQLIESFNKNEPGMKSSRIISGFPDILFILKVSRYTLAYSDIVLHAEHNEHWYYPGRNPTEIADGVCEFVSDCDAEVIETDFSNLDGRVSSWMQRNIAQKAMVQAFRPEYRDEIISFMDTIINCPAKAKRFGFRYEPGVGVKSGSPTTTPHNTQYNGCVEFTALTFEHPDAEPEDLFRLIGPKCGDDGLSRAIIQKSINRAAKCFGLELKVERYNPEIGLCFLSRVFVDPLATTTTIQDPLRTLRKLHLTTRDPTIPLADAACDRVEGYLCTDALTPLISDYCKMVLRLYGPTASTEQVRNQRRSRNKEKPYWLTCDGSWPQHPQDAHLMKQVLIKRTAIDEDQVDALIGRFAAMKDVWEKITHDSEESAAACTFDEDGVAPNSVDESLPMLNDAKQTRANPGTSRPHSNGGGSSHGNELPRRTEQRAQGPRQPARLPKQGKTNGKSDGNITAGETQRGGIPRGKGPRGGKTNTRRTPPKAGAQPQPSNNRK

Structure (SMILES): O=C(O)CP(=O)(O)O [PAA, phosphonoacetic acid]
- inhibition, dose-response: PAA dramatically inhibited the RdRP activity of FHV protein A in a dose-response manner
